Results reported in article PMC12845312, “Hydrazonylthiazole Derivatives as Dual EGFR and ALR2 Inhibitors: Design, Synthesis, and Comprehensive In Vitro and In Silico Evaluation for Potential Anticancer Activity” (Pharmaceuticals, 2025).
Where two headings read alike, the source gives them in different places.

How the values were obtained:
MCF-7 cells = conditions: cited from earlier work
EGFR [1] = target: T1, EGFR (Homo sapiens, UniProt P00533); conditions: read-out: EGFR inhibition IC50 (converted); cited from earlier work
T1 construct: purchased Promega V3831

[2] = test system: MCF-7 (breast cancer) cells; test: MTT cytotoxicity assay in MCF-7 cells; format: cell-based; conditions: for IC50: Homo sapiens, MCF7; for reduced viability in MCF-7 cells: 10 µM
Protocol: (§1) A549 (ATCC, Manassas, VA, USA) and MCF-7 (ATCC, VA, USA) cells were grown in Dulbecco’s Modified Eagle Medium (DMEM; Wako, Osaka, Japan) containing 10% fetal bovine serum (FBS; Equitech-Bio, Kerrville, TX, USA). Jurkat T-cells (ATCC, VA, USA) were maintained in RPMI-1640 medium (Wako Pure Chemical Industries, Osaka, Japan) supplemented with 10% FBS, while PBMCs (Precision Bioservices, Frederick, MD, USA) were expanded in the same medium supplemented with 10% human AB serum (Gemini, Woodland, CA, USA). Streptomycin was added to all culture media at a final concentration of 89 µg/mL (Meiji Seika Pharma, Tokyo, Japan). All cells were kept at 37 °C under humidified conditions with 5% CO2. For viability measurements, A549 and MCF-7 cells were seeded into 24-well plates, whereas PBMCs were dispensed into 96-well plates (Iwaki, Asahi Glass, Chiba, Japan) at initial densities of 4 × 10^4 cells/mL and 5 × 10^5 cells/mL, respectively. […] The DMSO content was kept constant at 1% in all wells. Cell viability was assessed using the MTT colorimetric assay (Dojindo, Kumamoto, Japan), following established procedures with minor protocol refinements previously reported in the literature.

[3] = test system: peripheral blood mononuclear cells (PBMCs); test: MTT cytotoxicity assay in PBMCs (selectivity); format: cell-based; conditions: for IC50: PBMC, MTT assay; for SI (Selectivity Index): IC50 for PBMC/IC50 for Jurkat cell line
Protocol: (§2) A549 (ATCC, Manassas, VA, USA) and MCF-7 (ATCC, VA, USA) cells were grown in Dulbecco’s Modified Eagle Medium (DMEM; Wako, Osaka, Japan) containing 10% fetal bovine serum (FBS; Equitech-Bio, Kerrville, TX, USA). Jurkat T-cells (ATCC, VA, USA) were maintained in RPMI-1640 medium (Wako Pure Chemical Industries, Osaka, Japan) supplemented with 10% FBS, while PBMCs (Precision Bioservices, Frederick, MD, USA) were expanded in the same medium supplemented with 10% human AB serum (Gemini, Woodland, CA, USA). Streptomycin was added to all culture media at a final concentration of 89 µg/mL (Meiji Seika Pharma, Tokyo, Japan). All cells were kept at 37 °C under humidified conditions with 5% CO2. For viability measurements, A549 and MCF-7 cells were seeded into 24-well plates, whereas PBMCs were dispensed into 96-well plates (Iwaki, Asahi Glass, Chiba, Japan) at initial densities of 4 × 10^4 cells/mL and 5 × 10^5 cells/mL, respectively. […] Concentrated stock solutions were prepared in dimethyl sulfoxide (DMSO; Wako Pure Chemical Industries) and diluted with culture medium to final assay concentrations ranging from […]. The DMSO content was kept constant at 1% in all wells. Cell viability was assessed using the MTT colorimetric assay (Dojindo, Kumamoto, Japan), following established procedures with minor protocol refinements previously reported in the literature.

HER-2 = target: T2, HER-2 (Homo sapiens, UniProt P04626); test: HER-2 kinase inhibition (Promega HER-2 TK kit, ADP-Glo); format: biochemical
T2 construct: purchased Promega V9381
Protocol: (§3) EGFR kinase activity was monitored using the Promega EGFR TK kit (Cat. No. V3831) at final test concentrations of 1 µM and 10 µM. HER-2 activity was assessed under analogous conditions using the Promega HER-2 TK kit (Cat. No. V9381) at 10 µM, in accordance with earlier studies. For each assay, the enzyme and its substrate were diluted in a mixture containing 95 µL of 2.5× kinase buffer and 15 µL of 100 µM ATP. Reactions were assembled in 384-well plates by dispensing 4 µL of each compound solution (0.1–100 µM) into wells containing 8 µL of the enzyme/ATP/substrate preparation. Plates were incubated for 1.5 h at room temperature, after which ADP formation, reflecting kinase turnover, was quantified using the ADP-Glo™ detection system (Promega, Madison, WI, USA). Luminescence was measured with an Infinite M1000 reader (Tecan, Grödig, Austria).

A549 (NSCLC) cells = test: MTT cytotoxicity assay in A549 cells; format: cell-based; conditions: for IC50: Homo sapiens, A549; for reduction in A549 viability: 10 µM
Protocol: as §1

A549 cells [4] = test: Apoptosis, Annexin V/ethidium homodimer staining; format: cell-based; conditions: IC50 concentration, 24 h
Protocol: After exposure, cells were detached using 0.05% trypsin, rinsed twice with 1× binding buffer, and prepared for fluorescence-based apoptotic assessment. The resulting pellet was suspended in a staining mixture consisting of 50 µL of 1× binding buffer, along with 4 µL each of FITC-Annexin V, ethidium homodimer III, and Hoechst 33342. The suspension was incubated for 20 min at room temperature in the dark to ensure proper labeling. Following staining, cells were washed again with binding buffer, fixed in 2% paraformaldehyde, and briefly rinsed with phosphate-buffered saline (PBS). Apoptotic and necrotic populations were visualized and recorded using a Biorevo BZ-9000 fluorescence microscope (Keyence, Osaka, Japan), following procedures adapted from previously reported workflows.

Jurkat leukemia cells = test: MTT cytotoxicity assay in Jurkat cells; format: cell-based; conditions: Homo sapiens
Protocol: as §2

ALR2 = ALR2 (Homo sapiens, UniProt P15121); test: In vitro ALR2 inhibition assay (NADPH absorbance, DL-glyceraldehyde substrate); format: biochemical; conditions: for Ki: ALR2, DL-glyceraldehyde substrate, mean ±SEM (n = 3)
Protocol: The protocol followed earlier steady-state kinetic studies with minor adjustments. Measurements were performed at 37 °C in 10 mM sodium phosphate buffer (pH 7.4) in 1 mL quartz cuvettes (1 cm path length). Each reaction mixture contained 0.11 mM NADPH and DL-glyceraldehyde at final concentrations between 0.071 and 0.376 mM. Test compounds were introduced from DMSO stock solutions, and the total DMSO content was kept below 1% (v/v).
Prior to substrate addition, the enzyme and inhibitor were combined and left on ice for 1 min to allow initial complex formation. The reaction was initiated by adding DL-glyceraldehyde, and the decrease in absorbance at 340 nm (ε340 = 6.22 mM^−1 cm^−1) was recorded for 180 s using a calibrated UV-Vis instrument. […] All values represent the mean of triplicate determinations, and the entire experiment was repeated on three separate days (n = 3). Reaction rates were calculated from the linear segment of each kinetic trace.
For selected compounds, including compound 5, extended kinetic analyses were conducted by varying both substrate and inhibitor levels. The resulting Lineweaver-Burk plots (1/v vs. 1/[S]) were used to interpret the inhibition pattern (Figure 18). Secondary replots were used to extract KI values by linear regression. Data processing and curve fitting were performed in GraphPad Prism (v10.0), and kinetic parameters are expressed as mean ± SEM.

EGFR [5] = target: T1, EGFR; test: EGFR kinase inhibition (Promega EGFR TK kit, ADP-Glo); format: biochemical
Protocol: as §3

A549 cells [6] = test system: A549 cells; parameters: method as in doi:10.1016/j.molstruc.2024.139067; conditions: read-out: IC50 against A549 cells; cited from earlier work
[7] = read-out: IC50 against MCF-7 cells

T1 sequence (P00533 25-1210): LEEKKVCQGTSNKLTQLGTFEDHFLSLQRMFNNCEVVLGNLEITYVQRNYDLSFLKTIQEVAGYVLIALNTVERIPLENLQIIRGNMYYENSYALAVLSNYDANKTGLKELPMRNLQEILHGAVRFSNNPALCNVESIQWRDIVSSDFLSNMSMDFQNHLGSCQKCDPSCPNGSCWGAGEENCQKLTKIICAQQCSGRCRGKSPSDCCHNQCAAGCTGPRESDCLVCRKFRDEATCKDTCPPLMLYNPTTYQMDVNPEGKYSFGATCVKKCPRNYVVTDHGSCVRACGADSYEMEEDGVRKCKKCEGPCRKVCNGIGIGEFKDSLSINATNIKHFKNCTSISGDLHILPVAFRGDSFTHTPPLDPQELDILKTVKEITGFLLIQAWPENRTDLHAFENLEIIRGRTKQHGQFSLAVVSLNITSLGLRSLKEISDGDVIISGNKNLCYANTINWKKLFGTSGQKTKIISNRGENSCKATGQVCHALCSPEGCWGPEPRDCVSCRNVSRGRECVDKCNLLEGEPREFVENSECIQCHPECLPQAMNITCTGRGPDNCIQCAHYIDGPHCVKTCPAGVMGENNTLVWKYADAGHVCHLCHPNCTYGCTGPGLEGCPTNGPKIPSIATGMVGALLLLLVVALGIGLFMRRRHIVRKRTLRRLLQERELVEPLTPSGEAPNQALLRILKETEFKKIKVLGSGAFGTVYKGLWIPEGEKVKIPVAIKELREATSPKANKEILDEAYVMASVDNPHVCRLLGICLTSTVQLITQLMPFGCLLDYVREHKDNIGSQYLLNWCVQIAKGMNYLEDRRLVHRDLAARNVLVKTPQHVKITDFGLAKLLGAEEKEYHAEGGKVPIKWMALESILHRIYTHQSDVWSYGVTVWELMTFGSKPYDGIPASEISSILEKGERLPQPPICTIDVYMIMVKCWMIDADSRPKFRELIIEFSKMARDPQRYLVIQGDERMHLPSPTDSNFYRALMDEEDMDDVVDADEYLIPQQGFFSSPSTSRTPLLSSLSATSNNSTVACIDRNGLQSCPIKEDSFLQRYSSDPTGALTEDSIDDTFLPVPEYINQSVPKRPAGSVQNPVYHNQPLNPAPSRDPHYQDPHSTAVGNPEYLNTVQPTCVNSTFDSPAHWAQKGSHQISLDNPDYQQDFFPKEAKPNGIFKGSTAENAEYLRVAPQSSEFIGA
T2 sequence (P04626 23-1255): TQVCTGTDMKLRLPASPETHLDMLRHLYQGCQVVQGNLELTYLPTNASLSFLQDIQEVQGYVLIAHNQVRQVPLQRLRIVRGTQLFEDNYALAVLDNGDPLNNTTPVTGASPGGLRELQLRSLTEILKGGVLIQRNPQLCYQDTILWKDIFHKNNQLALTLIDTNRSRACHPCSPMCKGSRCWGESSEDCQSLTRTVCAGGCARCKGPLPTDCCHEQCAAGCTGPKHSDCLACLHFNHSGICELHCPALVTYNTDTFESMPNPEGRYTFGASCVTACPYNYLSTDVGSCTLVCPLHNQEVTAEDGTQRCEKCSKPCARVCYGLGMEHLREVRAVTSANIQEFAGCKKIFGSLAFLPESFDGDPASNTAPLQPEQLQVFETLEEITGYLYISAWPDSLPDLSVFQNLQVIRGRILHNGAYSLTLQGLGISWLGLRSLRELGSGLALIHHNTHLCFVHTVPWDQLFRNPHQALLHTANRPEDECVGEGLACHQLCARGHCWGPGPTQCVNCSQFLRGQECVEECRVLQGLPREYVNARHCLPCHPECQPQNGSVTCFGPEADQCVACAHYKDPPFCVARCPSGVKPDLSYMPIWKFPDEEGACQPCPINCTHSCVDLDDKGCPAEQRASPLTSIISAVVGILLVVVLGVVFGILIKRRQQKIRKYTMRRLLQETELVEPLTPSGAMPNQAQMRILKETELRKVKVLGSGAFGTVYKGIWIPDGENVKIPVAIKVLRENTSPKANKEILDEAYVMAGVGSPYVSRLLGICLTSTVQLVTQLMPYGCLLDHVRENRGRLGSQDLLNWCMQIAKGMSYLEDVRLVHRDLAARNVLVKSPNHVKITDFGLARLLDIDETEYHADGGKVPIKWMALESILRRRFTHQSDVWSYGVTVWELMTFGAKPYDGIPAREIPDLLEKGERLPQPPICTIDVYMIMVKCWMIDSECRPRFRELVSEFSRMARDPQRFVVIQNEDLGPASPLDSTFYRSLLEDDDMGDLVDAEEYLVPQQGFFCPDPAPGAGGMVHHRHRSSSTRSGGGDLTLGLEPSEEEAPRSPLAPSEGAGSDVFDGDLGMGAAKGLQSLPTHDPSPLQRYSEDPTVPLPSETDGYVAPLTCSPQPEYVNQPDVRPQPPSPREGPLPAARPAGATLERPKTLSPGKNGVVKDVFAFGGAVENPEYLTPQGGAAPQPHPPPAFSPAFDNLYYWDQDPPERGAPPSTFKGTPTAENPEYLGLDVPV

## C/C(=N\Nc1nc(C)c(/N=N/c2ccc(Cl)cc2)s1)c1cccs1 [Compound 5j]
MCF-7 cells; read-out: IC50 toward MCF-7 cells
  IC50: 10.9 µM
EGFR [1]
  IC50: 0.0828 µM

## CS(=O)(=O)CCNCc1ccc(-c2ccc3ncnc(Nc4ccc(OCc5cccc(F)c5)c(Cl)c4)c3c2)o1 [Lapatinib, lapatinib, reference compound]
[2]
  IC50: 8.43 ± 2.85 µM
[3]
  IC50: 9.79 ± 2.69 µM
HER-2
  inhibition at 10 µM: 93%
A549 (NSCLC) cells
  IC50: 17.9 ± 5.12 µM
A549 cells [4]
  apoptosis induction: highly significant increases vs. untreated control
Jurkat leukemia cells
  IC50: 1.35 ± 0.41 µM

## Cn1ccnc1/C=N/Nc1nc(-c2ccccc2)cs1 [Compound 1, 1-[(4-Phenyl-1,3-thiazol-2-yl)amino]-2-[(1-methyl-1H-imidazol-2-yl)methylidene]hydrazine]
ALR2
  Ki: 2.64 ± 0.16 µM

## Cn1ccnc1/C=N/Nc1nc(-c2ccc(-c3cccs3)cc2)cs1 [Compound 13, 1-[(4-(4-(Thiophen-2-yl)phenyl)-1,3-thiazol-2-yl)amino]-2-[(1-methyl-1H-imidazol-2-yl)methylidene]hydrazine]
[2]
  reduced viability in MCF-7 cells: 69%
  IC50: 1.74 ± 0.38 µM
ALR2
  Ki: 2.48 ± 0.14 µM
[3]
  SI (Selectivity Index): 138.90
  IC50: 229 ± 26.2 µM
HER-2
  inhibition at 10 µM: 1.89%
A549 (NSCLC) cells
  reduction in A549 viability: ~ 67%
  IC50: 1.33 ± 0.41 µM
A549 cells [4]
  apoptosis induction: triggered apoptosis in A549 cells significantly compared with lapatinib
EGFR [5]
  inhibition at 1 µM: 45%
  inhibition at 10 µM: 74%
Jurkat leukemia cells
  IC50: 1.65 ± 0.4 µM

## Cn1ccnc1/C=N/Nc1nc(-c2ccc(Br)cc2)cs1 [Compound 5]
[2]
  reduced viability in MCF-7 cells: 67%
  IC50: 2.78 ± 2.85 µM
ALR2
  Ki: 0.08 ± 0.01 µM
ALR2; toward DL-glyceraldehyde
  inhibition profile (Lineweaver–Burk): competitive inhibition profile
[3]
  SI (Selectivity Index): 37.39
  IC50: 72.5 ± 14 µM
A549 (NSCLC) cells
  reduction in A549 viability: ~ 59%
  IC50: 6.87 ± 2.1 µM
EGFR [5]
  inhibition at 1 µM: 23%
  inhibition at 10 µM: 51%
Jurkat leukemia cells
  IC50: 1.94 ± 0.65 µM

## Cn1ccnc1/C=N/Nc1nc(-c2ccc3c(c2)OCO3)cs1 [Compound 12, 1-[(4-(Benzo[d][1,3]dioxol-5-yl)-1,3-thiazol-2-yl)amino]-2-[(1-methyl-1H-imidazol-2-yl)methylidene]hydrazine]
ALR2
  Ki: 2.01 ± 0.1 µM

## COc1ccc(-c2csc(N/N=C/c3nccn3C)n2)cc1 [Compound 8, 1-[(4-(4-Methoxyphenyl)-1,3-thiazol-2-yl)amino]-2-[(1-methyl-1H-imidazol-2-yl)methylidene]hydrazine]
ALR2
  Ki: 0.21 ± 0.02 µM

## Cn1ccnc1/C=N/Nc1nc(-c2ccc(F)cc2)cs1 [Compound 3, 1-[(4-(4-Fluorophenyl)-1,3-thiazol-2-yl)amino]-2-[(1-methyl-1H-imidazol-2-yl)methylidene]hydrazine]
ALR2
  Ki: 0.44 ± 0.09 µM

## Cn1ccnc1/C=N/Nc1nc(-c2ccc(C#N)cc2)cs1 [Compound 6, 1-[(4-(4-Cyanophenyl)-1,3-thiazol-2-yl)amino]-2-[(1-methyl-1H-imidazol-2-yl)methylidene]hydrazine]
ALR2
  Ki: 0.21 ± 0.02 µM

## Cn1ccnc1/C=N/Nc1nc(-c2ccc(C(F)(F)F)cc2)cs1 [Compound 9, 1-[(4-(4-Trifluoromethylphenyl)-1,3-thiazol-2-yl)amino]-2-[(1-methyl-1H-imidazol-2-yl)methylidene]hydrazine]
ALR2
  Ki: 0.91 ± 0.05 µM

## Cn1ccnc1/C=N/Nc1nc(-c2ccc(S(C)(=O)=O)cc2)cs1 [Compound 10, 1-[(4-(4-Methylsulfonylphenyl)-1,3-thiazol-2-yl)amino]-2-[(1-methyl-1H-imidazol-2-yl)methylidene]hydrazine]
ALR2
  Ki: 0.24 ± 0.02 µM

## Cc1ccc(-c2csc(N/N=C/c3nccn3C)n2)cc1 [Compound 7, 1-[(4-(4-Methylphenyl)-1,3-thiazol-2-yl)amino]-2-[(1-methyl-1H-imidazol-2-yl)methylidene]hydrazine]
ALR2
  Ki: 0.28 ± 0.03 µM

## Cn1ccnc1/C=N/Nc1nc(-c2ccc3ccccc3c2)cs1 [Compound 11, 1-[(4-(Naphthalen-2-yl)-1,3-thiazol-2-yl)amino]-2-[(1-methyl-1H-imidazol-2-yl)methylidene]hydrazine]
ALR2
  Ki: 1.91 ± 0.1 µM

## O=[N+]([O-])c1ccc(-c2csc(N/N=C/c3c4ccccc4cc4ccccc34)n2)cc1 [Compound A5]
MCF-7 cells; [7]
  IC50: 7 µM
A549 cells [6]
  IC50: 8.51 µM
EGFR [1]
  IC50: 0.88 µM

## Cn1c(-c2csc(NN=C3CCCC3)n2)nc2ccccc21 [Compound 4a]
MCF-7 cells; [7]
  IC50: 6.3 µM

## Cn1ccnc1/C=N/Nc1nc(-c2ccc(Cl)cc2)cs1 [Compound 4, 1-[(4-(4-Chlorophenyl)-1,3-thiazol-2-yl)amino]-2-[(1-methyl-1H-imidazol-2-yl)methylidene]hydrazine]
ALR2
  Ki: 0.28 ± 0.03 µM

## CCOC(=O)c1s/c(=N/N=C(\C)c2ccc(Nc3ccnc4cc(Cl)ccc34)cc2)n(C)c1C [Compound 6b]
MCF-7 cells; read-out: IC50 against MCF-7 cell line
  IC50: 5.35 µM
EGFR [1]
  IC50: 0.0189 µM

## Cn1ccnc1/C=N/Nc1nc(-c2ccc([N+](=O)[O-])cc2)cs1 [Compound 2, 1-[(4-(4-Nitrophenyl)-1,3-thiazol-2-yl)amino]-2-[(1-methyl-1H-imidazol-2-yl)methylidene]hydrazine]
ALR2
  Ki: 1.83 ± 0.11 µM
